What was measured:
Assay in all cases: Post-emergence herbicidal activity test (stem and leaf spray, pot culture)
Format in all cases: in vivo
Conditions in all cases: 3 weeks after spraying
Abutilon theophrasti = system: Abutilon theophrasti
How it was run: (§1)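 Activity is given as a 0–5 grade of fresh weight growth control, scored three weeks after a single stem-and-leaf spray. Weeds in farmland loam were treated at the 2- to 3-leaf stage at 10, 5 and 2.5 g/mu, with methyl oleate added as synergist.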

Amaranthus retroflexus = system: Amaranthus retroflexus
How it was run: as §1

Echinochloa crusgalli = system: Echinochloa crusgalli
How it was run: as §1

Portulaca oleracea = system: Portulaca oleracea
How it was run: as §1

Setaria viridis = system: Setaria viridis
How it was run: as §1

Trifoliumre pensL. = system: Trifoliumre pensL.
How it was run: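 Pot-grown weeds in loam (pH 7), greenhouse at 20–30 °C, sprayed once post-emergence at the 2–3-leaf stage. Compound in acetone with Tween 80 plus methyl oleate oil (1.5 L/ha), applied at 10, 5 and 2.5 g/mu by spray tower. Effect scored 3 weeks after spraying, averaged over three repeats.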

O=C1C2=C(CCCC2)C(=O)N1c1cc(OCc2nnc(-c3cccc(I)c3)o2)c(Cl)cc1F [Compound B11]
Post-emergence herbicidal activity, A. theophrasti (grade) (Abutilon theophrasti; dosage 2.5 g/mu): 4 (Grade 4: the growth control rate is greater than or equal to 60% and less than 85%)
Post-emergence herbicidal activity, A. theophrasti (grade) (Abutilon theophrasti; dosage 5 g/mu): 5 (Grade 5: the growth control rate is greater than or equal to 85%)
Post-emergence herbicidal activity, A. theophrasti (grade) (Abutilon theophrasti; dosage 10 g/mu): 5 (Grade 5: the growth control rate is greater than or equal to 85%)
Post-emergence herbicidal activity, A. retroflexus (grade) (Amaranthus retroflexus; dosage 2.5 g/mu): 4 (Grade 4: the growth control rate is greater than or equal to 60% and less than 85%)
Post-emergence herbicidal activity, A. retroflexus (grade) (Amaranthus retroflexus; dosage 5 g/mu): 5 (Grade 5: the growth control rate is greater than or equal to 85%)
Post-emergence herbicidal activity, A. retroflexus (grade) (Amaranthus retroflexus; dosage 10 g/mu): 5 (Grade 5: the growth control rate is greater than or equal to 85%)
Post-emergence herbicidal activity, E. crusgalli (grade) (Echinochloa crusgalli; dosage 2.5 g/mu): 1 (Grade 1: the growth control rate is greater than or equal to 5% and less than 20%)
Post-emergence herbicidal activity, E. crusgalli (grade) (Echinochloa crusgalli; dosage 5 g/mu): 2 (Grade 2: the growth control rate is greater than or equal to 20% and less than 40%)
Post-emergence herbicidal activity, E. crusgalli (grade) (Echinochloa crusgalli; dosage 10 g/mu): 3 (Grade 3: the growth control rate is greater than or equal to 40% and less than 60%)
Post-emergence herbicidal activity, P. oleracea (grade) (Portulaca oleracea; dosage 2.5 g/mu): 5 (Grade 5: the growth control rate is greater than or equal to 85%)
Post-emergence herbicidal activity, P. oleracea (grade) (Portulaca oleracea; dosage 5 g/mu): 5 (Grade 5: the growth control rate is greater than or equal to 85%)
Post-emergence herbicidal activity, P. oleracea (grade) (Portulaca oleracea; dosage 10 g/mu): 5 (Grade 5: the growth control rate is greater than or equal to 85%)
Post-emergence herbicidal activity, S. viridis (grade) (Setaria viridis; dosage 2.5 g/mu): 2 (Grade 2: the growth control rate is greater than or equal to 20% and less than 40%)
Post-emergence herbicidal activity, S. viridis (grade) (Setaria viridis; dosage 5 g/mu): 3 (Grade 3: the growth control rate is greater than or equal to 40% and less than 60%)
Post-emergence herbicidal activity, S. viridis (grade) (Setaria viridis; dosage 10 g/mu): 4 (Grade 4: the growth control rate is greater than or equal to 60% and less than 85%)
Post-emergence herbicidal activity, Trifoliumre pensL. (grade) (Trifoliumre pensL.; dosage 2.5 g/mu): 5 (Grade 5: the growth control rate is greater than or equal to 85%)
Post-emergence herbicidal activity, Trifoliumre pensL. (grade) (Trifoliumre pensL.; dosage 5 g/mu): 5 (Grade 5: the growth control rate is greater than or equal to 85%)
Post-emergence herbicidal activity, Trifoliumre pensL. (grade) (Trifoliumre pensL.; dosage 10 g/mu): 5 (Grade 5: the growth control rate is greater than or equal to 85%)

O=C1C2=C(CCCC2)C(=O)N1c1cc(OCc2nnc(-c3cccc([N+](=O)[O-])c3)o2)c(Cl)cc1F [Compound B12]
Post-emergence herbicidal activity, A. theophrasti (grade) (Abutilon theophrasti; dosage 2.5 g/mu): 5 (Grade 5: the growth control rate is greater than or equal to 85%)
Post-emergence herbicidal activity, A. theophrasti (grade) (Abutilon theophrasti; dosage 5 g/mu): 5 (Grade 5: the growth control rate is greater than or equal to 85%)
Post-emergence herbicidal activity, A. theophrasti (grade) (Abutilon theophrasti; dosage 10 g/mu): 5 (Grade 5: the growth control rate is greater than or equal to 85%)
Post-emergence herbicidal activity, A. retroflexus (grade) (Amaranthus retroflexus; dosage 2.5 g/mu): 5 (Grade 5: the growth control rate is greater than or equal to 85%)
Post-emergence herbicidal activity, A. retroflexus (grade) (Amaranthus retroflexus; dosage 5 g/mu): 5 (Grade 5: the growth control rate is greater than or equal to 85%)
Post-emergence herbicidal activity, A. retroflexus (grade) (Amaranthus retroflexus; dosage 10 g/mu): 5 (Grade 5: the growth control rate is greater than or equal to 85%)
Post-emergence herbicidal activity, E. crusgalli (grade) (Echinochloa crusgalli; dosage 2.5 g/mu): 1 (Grade 1: the growth control rate is greater than or equal to 5% and less than 20%)
Post-emergence herbicidal activity, E. crusgalli (grade) (Echinochloa crusgalli; dosage 5 g/mu): 2 (Grade 2: the growth control rate is greater than or equal to 20% and less than 40%)
Post-emergence herbicidal activity, E. crusgalli (grade) (Echinochloa crusgalli; dosage 10 g/mu): 3 (Grade 3: the growth control rate is greater than or equal to 40% and less than 60%)
Post-emergence herbicidal activity, P. oleracea (grade) (Portulaca oleracea; dosage 2.5 g/mu): 5 (Grade 5: the growth control rate is greater than or equal to 85%)
Post-emergence herbicidal activity, P. oleracea (grade) (Portulaca oleracea; dosage 5 g/mu): 5 (Grade 5: the growth control rate is greater than or equal to 85%)
Post-emergence herbicidal activity, P. oleracea (grade) (Portulaca oleracea; dosage 10 g/mu): 5 (Grade 5: the growth control rate is greater than or equal to 85%)
Post-emergence herbicidal activity, S. viridis (grade) (Setaria viridis; dosage 2.5 g/mu): 2 (Grade 2: the growth control rate is greater than or equal to 20% and less than 40%)
Post-emergence herbicidal activity, S. viridis (grade) (Setaria viridis; dosage 5 g/mu): 3 (Grade 3: the growth control rate is greater than or equal to 40% and less than 60%)
Post-emergence herbicidal activity, S. viridis (grade) (Setaria viridis; dosage 10 g/mu): 4 (Grade 4: the growth control rate is greater than or equal to 60% and less than 85%)
Post-emergence herbicidal activity, Trifoliumre pensL. (grade) (Trifoliumre pensL.; dosage 2.5 g/mu): 5 (Grade 5: the growth control rate is greater than or equal to 85%)
Post-emergence herbicidal activity, Trifoliumre pensL. (grade) (Trifoliumre pensL.; dosage 5 g/mu): 5 (Grade 5: the growth control rate is greater than or equal to 85%)
Post-emergence herbicidal activity, Trifoliumre pensL. (grade) (Trifoliumre pensL.; dosage 10 g/mu): 5 (Grade 5: the growth control rate is greater than or equal to 85%)

O=C1C2=C(CCCC2)C(=O)N1c1cc(OCc2nnc(-c3ccc(F)cc3)o2)c(Cl)cc1F [Compound B14]
Post-emergence herbicidal activity, A. theophrasti (grade) (Abutilon theophrasti; dosage 2.5 g/mu): 4 (Grade 4: the growth control rate is greater than or equal to 60% and less than 85%)
Post-emergence herbicidal activity, A. theophrasti (grade) (Abutilon theophrasti; dosage 5 g/mu): 5 (Grade 5: the growth control rate is greater than or equal to 85%)
Post-emergence herbicidal activity, A. theophrasti (grade) (Abutilon theophrasti; dosage 10 g/mu): 5 (Grade 5: the growth control rate is greater than or equal to 85%)
Post-emergence herbicidal activity, A. retroflexus (grade) (Amaranthus retroflexus; dosage 2.5 g/mu): 5 (Grade 5: the growth control rate is greater than or equal to 85%)
Post-emergence herbicidal activity, A. retroflexus (grade) (Amaranthus retroflexus; dosage 5 g/mu): 5 (Grade 5: the growth control rate is greater than or equal to 85%)
Post-emergence herbicidal activity, A. retroflexus (grade) (Amaranthus retroflexus; dosage 10 g/mu): 5 (Grade 5: the growth control rate is greater than or equal to 85%)
Post-emergence herbicidal activity, E. crusgalli (grade) (Echinochloa crusgalli; dosage 2.5 g/mu): 1 (Grade 1: the growth control rate is greater than or equal to 5% and less than 20%)
Post-emergence herbicidal activity, E. crusgalli (grade) (Echinochloa crusgalli; dosage 5 g/mu): 2 (Grade 2: the growth control rate is greater than or equal to 20% and less than 40%)
Post-emergence herbicidal activity, E. crusgalli (grade) (Echinochloa crusgalli; dosage 10 g/mu): 3 (Grade 3: the growth control rate is greater than or equal to 40% and less than 60%)
Post-emergence herbicidal activity, P. oleracea (grade) (Portulaca oleracea; dosage 2.5 g/mu): 4 (Grade 4: the growth control rate is greater than or equal to 60% and less than 85%)
Post-emergence herbicidal activity, P. oleracea (grade) (Portulaca oleracea; dosage 5 g/mu): 5 (Grade 5: the growth control rate is greater than or equal to 85%)
Post-emergence herbicidal activity, P. oleracea (grade) (Portulaca oleracea; dosage 10 g/mu): 5 (Grade 5: the growth control rate is greater than or equal to 85%)
Post-emergence herbicidal activity, S. viridis (grade) (Setaria viridis; dosage 2.5 g/mu): 2 (Grade 2: the growth control rate is greater than or equal to 20% and less than 40%)
Post-emergence herbicidal activity, S. viridis (grade) (Setaria viridis; dosage 5 g/mu): 3 (Grade 3: the growth control rate is greater than or equal to 40% and less than 60%)
Post-emergence herbicidal activity, S. viridis (grade) (Setaria viridis; dosage 10 g/mu): 4 (Grade 4: the growth control rate is greater than or equal to 60% and less than 85%)
Post-emergence herbicidal activity, Trifoliumre pensL. (grade) (Trifoliumre pensL.; dosage 2.5 g/mu): 5 (Grade 5: the growth control rate is greater than or equal to 85%)
Post-emergence herbicidal activity, Trifoliumre pensL. (grade) (Trifoliumre pensL.; dosage 5 g/mu): 5 (Grade 5: the growth control rate is greater than or equal to 85%)
Post-emergence herbicidal activity, Trifoliumre pensL. (grade) (Trifoliumre pensL.; dosage 10 g/mu): 5 (Grade 5: the growth control rate is greater than or equal to 85%)

O=C1C2=C(CCCC2)C(=O)N1c1cc(OCc2nnc(-c3ccc(Cl)cc3)o2)c(Cl)cc1F [Compound B15]
Post-emergence herbicidal activity, A. theophrasti (grade) (Abutilon theophrasti; dosage 2.5 g/mu): 5 (Grade 5: the growth control rate is greater than or equal to 85%)
Post-emergence herbicidal activity, A. theophrasti (grade) (Abutilon theophrasti; dosage 5 g/mu): 5 (Grade 5: the growth control rate is greater than or equal to 85%)
Post-emergence herbicidal activity, A. theophrasti (grade) (Abutilon theophrasti; dosage 10 g/mu): 5 (Grade 5: the growth control rate is greater than or equal to 85%)
Post-emergence herbicidal activity, A. retroflexus (grade) (Amaranthus retroflexus; dosage 2.5 g/mu): 5 (Grade 5: the growth control rate is greater than or equal to 85%)
Post-emergence herbicidal activity, A. retroflexus (grade) (Amaranthus retroflexus; dosage 5 g/mu): 5 (Grade 5: the growth control rate is greater than or equal to 85%)
Post-emergence herbicidal activity, A. retroflexus (grade) (Amaranthus retroflexus; dosage 10 g/mu): 5 (Grade 5: the growth control rate is greater than or equal to 85%)
Post-emergence herbicidal activity, E. crusgalli (grade) (Echinochloa crusgalli; dosage 2.5 g/mu): 1 (Grade 1: the growth control rate is greater than or equal to 5% and less than 20%)
Post-emergence herbicidal activity, E. crusgalli (grade) (Echinochloa crusgalli; dosage 5 g/mu): 2 (Grade 2: the growth control rate is greater than or equal to 20% and less than 40%)
Post-emergence herbicidal activity, E. crusgalli (grade) (Echinochloa crusgalli; dosage 10 g/mu): 3 (Grade 3: the growth control rate is greater than or equal to 40% and less than 60%)
Post-emergence herbicidal activity, P. oleracea (grade) (Portulaca oleracea; dosage 2.5 g/mu): 5 (Grade 5: the growth control rate is greater than or equal to 85%)
Post-emergence herbicidal activity, P. oleracea (grade) (Portulaca oleracea; dosage 5 g/mu): 5 (Grade 5: the growth control rate is greater than or equal to 85%)
Post-emergence herbicidal activity, P. oleracea (grade) (Portulaca oleracea; dosage 10 g/mu): 5 (Grade 5: the growth control rate is greater than or equal to 85%)
Post-emergence herbicidal activity, S. viridis (grade) (Setaria viridis; dosage 2.5 g/mu): 2 (Grade 2: the growth control rate is greater than or equal to 20% and less than 40%)
Post-emergence herbicidal activity, S. viridis (grade) (Setaria viridis; dosage 5 g/mu): 3 (Grade 3: the growth control rate is greater than or equal to 40% and less than 60%)
Post-emergence herbicidal activity, S. viridis (grade) (Setaria viridis; dosage 10 g/mu): 4 (Grade 4: the growth control rate is greater than or equal to 60% and less than 85%)
Post-emergence herbicidal activity, Trifoliumre pensL. (grade) (Trifoliumre pensL.; dosage 2.5 g/mu): 5 (Grade 5: the growth control rate is greater than or equal to 85%)
Post-emergence herbicidal activity, Trifoliumre pensL. (grade) (Trifoliumre pensL.; dosage 5 g/mu): 5 (Grade 5: the growth control rate is greater than or equal to 85%)
Post-emergence herbicidal activity, Trifoliumre pensL. (grade) (Trifoliumre pensL.; dosage 10 g/mu): 5 (Grade 5: the growth control rate is greater than or equal to 85%)
